Source: US12559526B2, “Complement component 1s (C1s) deficient cells for production of vaccines and biopharmaceutical proteins” (The Regents of the University of California, priority 2018, dated 2026)

Molecular target: T1, C1s (Cricetulus griseus, UniProt G3GUR0)
T1 construct: endogenous in cells; host or cells: CHO cells; FreeStyle CHO-S (Thermo Fisher) named in Materials and Methods; 10x concentrated culture supernatant
Assay: Proteolysis of purified MN gp120 by 10× concentrated CHO supernatant, western blot
Assay type: biochemical, Chinese Hamster
Settings: purified MN gp120 (clade B) combined with 10× concentrated CHO supernatant; reduced with DTT; goat polyclonal anti-gp120 western blot
Method: FIGS. 8A and 8B. […] FIG. 8A. Purified MN gp120, a clade B protein, was combined with 10× concentrated CHO supernatant. Samples were reduced with DTT and probed on western blot using a goat polyclonal antibody against gp120. FIG. 8B provides details of samples loaded in lanes 1-5 in FIG. 8A. The serine protease inhibitor, 4-AMB was used.
Enrichment of protease from CHO cell culture supernatant was carried out using a series of chromatography columns to enrich for protein containing proteolytic activity. Individual chromatography fractions (CHO cell culture supernatant was fractionated based on size using size exclusion chromatography, followed by further purification on strong anion-exchange column) were assayed for the presence of protease activity against purified gp120.

T1 sequence (G3GUR0 entry or part of it): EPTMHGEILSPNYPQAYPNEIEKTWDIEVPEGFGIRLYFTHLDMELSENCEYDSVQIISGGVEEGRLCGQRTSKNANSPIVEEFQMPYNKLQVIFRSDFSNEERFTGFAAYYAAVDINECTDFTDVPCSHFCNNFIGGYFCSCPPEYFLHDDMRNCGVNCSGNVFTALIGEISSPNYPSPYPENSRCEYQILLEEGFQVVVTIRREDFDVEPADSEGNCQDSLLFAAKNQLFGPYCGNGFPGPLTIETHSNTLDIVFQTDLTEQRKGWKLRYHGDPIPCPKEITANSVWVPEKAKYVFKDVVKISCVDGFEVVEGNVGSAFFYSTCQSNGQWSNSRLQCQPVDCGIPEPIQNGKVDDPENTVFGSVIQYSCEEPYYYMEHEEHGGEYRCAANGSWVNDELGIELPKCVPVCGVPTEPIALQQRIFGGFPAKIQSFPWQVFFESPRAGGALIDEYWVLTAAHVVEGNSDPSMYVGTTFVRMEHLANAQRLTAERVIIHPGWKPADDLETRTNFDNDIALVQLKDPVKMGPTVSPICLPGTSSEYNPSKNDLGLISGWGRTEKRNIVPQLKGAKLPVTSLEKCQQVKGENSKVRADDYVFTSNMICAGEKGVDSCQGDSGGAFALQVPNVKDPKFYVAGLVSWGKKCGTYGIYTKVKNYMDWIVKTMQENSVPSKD

For `O=C(O)CN(CCOCCOCCN(CC(=O)O)CC(=O)O)CC(=O)O` [EGTA], the “proteolysis of gp120 in CHO cell supernatant” value was “Inhibition of proteolysis”.
